Test results taken from ChEMBL document CHEMBL1201862, “PubChem BioAssay data set” (2004).
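Protocol summary: plate cells (96-well), add compound at 5 concentrations, incubate 48 h, interpolate endpoints linearly. GI50: concentration for 50% inhibition of growth.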 Active and inactive are the calls of the source. No stated cut-off is given here; in the data, active = GI50 up to about 1.1 µM and inactive = higher.

Tests used:
Experiment in all cases: NCI anticancer screen, dose series, 48 h
[1] = tested on: RPMI-8226
[2] = tested on: NCI-H522
[3] = tested on: RXF 393
[4] = tested on: BT-549
[5] = tested on: SW-620
[6] = tested on: A498
[7] = tested on: OVCAR-5
[8] = tested on: NCI/ADR-RES
[9] = tested on: HT-29
[10] = tested on: COLO 205
[11] = tested on: Malme-3M
[12] = tested on: SF-539
[13] = tested on: SK-MEL-2
[14] = tested on: 786-0
[15] = tested on: DU-145
[16] = tested on: SK-MEL-5
[17] = tested on: HCT-116
[18] = tested on: HCT-15
[19] = tested on: OVCAR-4
[20] = tested on: HOP-62

SMILES | GI50 [1] | GI50 [2] | GI50 [3] | GI50 [4] | GI50 [5] | GI50 [6] | GI50 [7] | GI50 [8] | GI50 [9] | GI50 [10] | GI50 [11] | GI50 [12] | GI50 [13] | GI50 [14] | GI50 [15] | GI50 [16] | GI50 [17] | GI50 [18] [µM] | GI50 [19] | GI50 [20]
CN(C)CCOc1ccc(-c2c(Oc3ccccc3)c(=O)oc3ccccc23)cc1 | 14.1 µM (inactive) | 11.3 µM (inactive) | 3.08 µM (inactive) | 13.6 µM (inactive) | 11.4 µM (inactive) | 13.4 µM (inactive) | 15 µM (inactive) | 11.2 µM (inactive) | 12.5 µM (inactive) | 11 µM (inactive) | 12.2 µM (inactive) | 14.1 µM (inactive) | 13.4 µM (inactive) | 8.39 µM (inactive) | 13.8 µM (inactive) | 3.78 µM (inactive) | 4.83 µM (inactive) | 10.3 | 27.2 µM (inactive) | –
CC(=O)C(N1CCCCC1)C(O)(C(F)(F)F)C(F)(F)F (stereo not drawn) | 81.8 µM (inactive) | 64 µM (inactive) | 38.5 µM (inactive) | > 100 µM (inactive) | 98.2 µM (inactive) | > 100 µM (inactive) | > 100 µM (inactive) | > 100 µM (inactive) | > 100 µM (inactive) | > 100 µM (inactive) | > 100 µM (inactive) | > 100 µM (inactive) | – | > 100 µM (inactive) | > 100 µM (inactive) | 19.8 µM (inactive) | 58.3 µM (inactive) | 79.3 | > 100 µM (inactive) | –
COC(=O)C(Cc1c[nH]c2ccccc12)NC(=O)c1ccc(-c2ccc(Cl)cc2Cl)o1 (stereo not drawn) | 16 µM (inactive) | 64.3 µM (inactive) | 28.5 µM (inactive) | > 100 µM (inactive) | 41.1 µM (inactive) | 15.5 µM (inactive) | > 100 µM (inactive) | 77.8 µM (inactive) | 15.7 µM (inactive) | 43.9 µM (inactive) | > 100 µM (inactive) | 21.7 µM (inactive) | 34.8 µM (inactive) | 43.3 µM (inactive) | 71.6 µM (inactive) | – | 22.3 µM (inactive) | 52.7 | 38.3 µM (inactive) | 45.8 µM (inactive)
COC(=O)C1(Cc2ccc3c(c2)CCC3)Cc2cc3c(cc2C1)CCC3 | 53 µM (inactive) | 22.1 µM (inactive) | 23.9 µM (inactive) | 42.7 µM (inactive) | 75.7 µM (inactive) | 35.2 µM (inactive) | 55.6 µM (inactive) | 59.8 µM (inactive) | 22.5 µM (inactive) | 38.5 µM (inactive) | – | > 100 µM (inactive) | 19.9 µM (inactive) | 51.4 µM (inactive) | 71.4 µM (inactive) | 27 µM (inactive) | 35.1 µM (inactive) | 31.6 | 32.2 µM (inactive) | > 100 µM (inactive)
COc1ccc2c(c1)C1c3ccccc3CCN1CCC2 (stereo not drawn) | 28.8 µM (inactive) | 28.4 µM (inactive) | 47.6 µM (inactive) | 24.9 µM (inactive) | 28.2 µM (inactive) | 69.3 µM (inactive) | 93.1 µM (inactive) | 31.2 µM (inactive) | 33.3 µM (inactive) | 44.7 µM (inactive) | – | 47.3 µM (inactive) | 23.1 µM (inactive) | 42.1 µM (inactive) | > 100 µM (inactive) | 29.2 µM (inactive) | 32.1 µM (inactive) | 39.4 | > 100 µM (inactive) | 58.6 µM (inactive)
CCOC(=O)C1=C(C)N(c2ccc(C)cc2)C2(O)C=CC(O)=C3C(=O)c4ccccc4C(=O)C312 (stereo not drawn) | 11.1 µM (inactive) | 16.1 µM (inactive) | 28.8 µM (inactive) | 19.2 µM (inactive) | 28.1 µM (inactive) | 29.4 µM (inactive) | 54.2 µM (inactive) | 8.24 µM (inactive) | 25 µM (inactive) | 32.4 µM (inactive) | 20.6 µM (inactive) | 22.2 µM (inactive) | 37.1 µM (inactive) | 33.9 µM (inactive) | 23.6 µM (inactive) | 19.7 µM (inactive) | 48.5 µM (inactive) | 22.8 | 25 µM (inactive) | > 100 µM (inactive)
CCCCCCCCCC(=O)N[C@@H](c1ccco1)[C@@H](O)C(=O)O[C@H]1C[C@@]2(O)[C@@H](OC(=O)c3ccccc3)[C@@H]3[C@]4(OC(C)=O)CO[C@@H]4C[C@H](O)[C@@]3(C)C(=O)[C@H](OC(C)=O)C(=C1C)C2(C)C | < 0.005 µM (active) | 0.0149 µM (active) | 0.043 µM (active) | 0.0419 µM (active) | 0.0243 µM (active) | 0.082 µM (active) | 0.0196 µM (active) | 4.57 µM (inactive) | 0.00598 µM (active) | < 0.005 µM (active) | 0.0269 µM (active) | 0.0228 µM (active) | – | 0.0282 µM (active) | 0.106 µM (active) | 0.0154 µM (active) | 0.00539 µM (active) | 0.752 | 1.34 µM (inactive) | 0.0593 µM (active)
COC1OC(Cn2c(C)nc(Br)c2Br)C(O)C(O)C1O (stereo not drawn) | > 100 µM (inactive) | > 100 µM (inactive) | > 100 µM (inactive) | > 100 µM (inactive) | > 100 µM (inactive) | > 100 µM (inactive) | > 100 µM (inactive) | > 100 µM (inactive) | > 100 µM (inactive) | > 100 µM (inactive) | > 100 µM (inactive) | – | > 100 µM (inactive) | > 100 µM (inactive) | > 100 µM (inactive) | > 100 µM (inactive) | > 100 µM (inactive) | > 100 | > 100 µM (inactive) | > 100 µM (inactive)
Cc1ccc(S(=O)(=O)Oc2nc3ccccc3nc2N(S(=O)(=O)c2ccc(C)cc2)S(=O)(=O)c2ccc(C)cc2)cc1 | 32.1 µM (inactive) | 74 µM (inactive) | 76.4 µM (inactive) | 90.6 µM (inactive) | 34.8 µM (inactive) | 89.9 µM (inactive) | 33 µM (inactive) | 40.2 µM (inactive) | 28.2 µM (inactive) | > 100 µM (inactive) | 49.9 µM (inactive) | 29 µM (inactive) | 81.8 µM (inactive) | 38.6 µM (inactive) | 53.8 µM (inactive) | 47.9 µM (inactive) | 36.3 µM (inactive) | 31 | – | –
c1csc(-c2ccc(-c3cccs3)c3nsnc23)c1 | 12.2 µM (inactive) | > 100 µM (inactive) | > 22 µM (inactive) | > 52.7 µM (inactive) | 17.1 µM (inactive) | > 100 µM (inactive) | – | > 49.5 µM (inactive) | 49.8 µM (inactive) | 6.56 µM (inactive) | > 39.1 µM (inactive) | 24.4 µM (inactive) | > 48.6 µM (inactive) | 22.8 µM (inactive) | 33.8 µM (inactive) | > 33.6 µM (inactive) | 19.8 µM (inactive) | 0.261 | 0.608 µM (active) | 35.6 µM (inactive)
CCc1nc(N)nc(N)c1-c1ccc(Cl)c(/N=C/N(C)C)c1 | 54.3 µM (inactive) | 24.1 µM (inactive) | > 89.3 µM (inactive) | > 81.7 µM (inactive) | 22.3 µM (inactive) | 86.9 µM (inactive) | > 100 µM (inactive) | > 93.1 µM (inactive) | 18.8 µM (inactive) | 65 µM (inactive) | – | 45.3 µM (inactive) | > 100 µM (inactive) | 22.8 µM (inactive) | 81.1 µM (inactive) | 29.9 µM (inactive) | 10.3 µM (inactive) | 10.4 | 72.3 µM (inactive) | 63.7 µM (inactive)
